According to publication PMC9097471, “Development of Selective Phosphatidylinositol 5-Phosphate 4-Kinase γ Inhibitors with a Non-ATP-competitive, Allosteric Binding Mode” (Journal of Medicinal Chemistry, 2022):

Assays:
PI5P4Kα = test system: PI5P4Kα; design: method as in ref 30 (a number printed in a supplementary file, which may have a reference list of its own: not looked up in the article's list); details: 32P-ATP/PI5P incorporation; cited from earlier work
PI5P4Kβ = biological target: T1, PI5P4Kβ (Homo sapiens, UniProt P78356); assay: Thermal shift assay; details: read-out: ΔTm PI5P4Kβ, thermal shift, compound 63 μM
T1 sequence (P78356 1-416): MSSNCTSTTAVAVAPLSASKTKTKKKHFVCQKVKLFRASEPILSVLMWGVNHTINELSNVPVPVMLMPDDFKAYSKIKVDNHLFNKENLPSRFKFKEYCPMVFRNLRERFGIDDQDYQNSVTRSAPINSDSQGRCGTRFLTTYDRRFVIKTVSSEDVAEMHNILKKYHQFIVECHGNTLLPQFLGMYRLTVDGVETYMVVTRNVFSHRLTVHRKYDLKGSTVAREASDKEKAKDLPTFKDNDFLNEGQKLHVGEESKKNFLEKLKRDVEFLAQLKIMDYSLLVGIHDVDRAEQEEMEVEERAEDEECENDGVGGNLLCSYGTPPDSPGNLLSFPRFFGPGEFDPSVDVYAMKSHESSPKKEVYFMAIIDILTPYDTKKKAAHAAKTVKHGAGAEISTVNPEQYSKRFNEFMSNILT

VEG-FR = VEG-FR (Homo sapiens, UniProt P17948); assay: Kinase panel, radiometric 33P filter binding; details: read-out: % activity remaining
Text: (§1) filter binding assay using 33P-g-ATPat the MRC PPU International Centre for Kinase Profiling, University of

IGF-1R = IGF-1R (Homo sapiens, UniProt P08069); assay: Kinase panel, radiometric 33P filter binding; details: read-out: % activity remaining
Text: as §1

DAPK1 = DAPK1 (Homo sapiens, UniProt P53355); assay: Kinase panel, radiometric 33P filter binding; details: read-out: % activity remaining
Text: as §1

MST3 = MST3 (Homo sapiens, UniProt Q9Y6E0); assay: Kinase panel, radiometric 33P filter binding; details: read-out: % activity remaining
EPH-B1 = EPH-B1 (Homo sapiens, UniProt P54762); assay: Kinase panel, radiometric 33P filter binding; details: read-out: % activity remaining
Text: as §1

TTBK2 = TTBK2 (Homo sapiens, UniProt Q6IQ55); assay: Kinase panel, radiometric 33P filter binding; details: read-out: % activity remaining
Text: as §1

EPH-A4 = EPH-A4 (Homo sapiens, UniProt P54764); assay: Kinase panel, radiometric 33P filter binding; details: read-out: % activity remaining
Text: as §1

TAK1 = TAK1 (Homo sapiens, UniProt O43318); assay: Kinase panel, radiometric 33P filter binding; details: read-out: % activity remaining
NEK2a = NEK2a (Homo sapiens, UniProt P51955); assay: Kinase panel, radiometric 33P filter binding; details: read-out: % activity remaining
Text: as §1

MLK1 = MLK1 (Homo sapiens, UniProt P80192); assay: Kinase panel, radiometric 33P filter binding; details: read-out: % activity remaining
Text: as §1

MKK6 = MKK6 (Homo sapiens, UniProt P52564); assay: Kinase panel, radiometric 33P filter binding; details: read-out: % activity remaining
MEKK1 = MEKK1 (Homo sapiens, UniProt Q13233); assay: Kinase panel, radiometric 33P filter binding; details: read-out: % activity remaining
Text: as §1

SGK1 = SGK1 (Homo sapiens, UniProt O00141); assay: Kinase panel, radiometric 33P filter binding; details: read-out: % activity remaining
Text: as §1

PKD1 = PKD1 (Homo sapiens, UniProt Q15139); assay: Kinase panel, radiometric 33P filter binding; details: read-out: % activity remaining
Text: as §1

ERK8 = ERK8 (Homo sapiens, UniProt Q8TD08); assay: Kinase panel, radiometric 33P filter binding; details: read-out: % activity remaining
Text: as §1

ERK5 = ERK5 (Homo sapiens, UniProt Q13164); assay: Kinase panel, radiometric 33P filter binding; details: read-out: % activity remaining
Text: as §1

PINK = PINK (Tribolium castaneum, UniProt D6WMX4); assay: biochemical; details: read-out: % activity remaining
HIPK3 = HIPK3 (Homo sapiens, UniProt Q9H422); assay: Kinase panel, radiometric 33P filter binding; details: read-out: % activity remaining
Text: as §1

GCK = GCK (Homo sapiens, UniProt Q12851); assay: Kinase panel, radiometric 33P filter binding; details: read-out: % activity remaining
Text: as §1

RIPK2 = RIPK2 (Homo sapiens, UniProt O43353); assay: Kinase panel, radiometric 33P filter binding; details: read-out: % activity remaining
PLK1 = PLK1 (Homo sapiens, UniProt P53350); assay: Kinase panel, radiometric 33P filter binding; details: read-out: % activity remaining
Text: as §1

HIPK1 = HIPK1 (Homo sapiens, UniProt Q86Z02); assay: Kinase panel, radiometric 33P filter binding; details: read-out: % activity remaining
Text: as §1

MARK1 = MARK1 (Homo sapiens, UniProt Q9P0L2); assay: Kinase panel, radiometric 33P filter binding; details: read-out: % activity remaining
Text: as §1

TTK = TTK (Homo sapiens, UniProt P33981); assay: Kinase panel, radiometric 33P filter binding; details: read-out: % activity remaining
Text: as §1

AMPK (hum) = AMPK (hum) (Homo sapiens, UniProt Q13131); assay: Kinase panel, radiometric 33P filter binding; details: read-out: % activity remaining
Text: as §1

MELK = MELK (Homo sapiens, UniProt Q14680); assay: Kinase panel, radiometric 33P filter binding; details: read-out: % activity remaining
Text: as §1
Kinase % activity remaining s.d.

MST2 = MST2 (Homo sapiens, UniProt Q13188); assay: Kinase panel, radiometric 33P filter binding; details: read-out: % activity remaining

AMPK (hum), sequence (Q13131 whole entry): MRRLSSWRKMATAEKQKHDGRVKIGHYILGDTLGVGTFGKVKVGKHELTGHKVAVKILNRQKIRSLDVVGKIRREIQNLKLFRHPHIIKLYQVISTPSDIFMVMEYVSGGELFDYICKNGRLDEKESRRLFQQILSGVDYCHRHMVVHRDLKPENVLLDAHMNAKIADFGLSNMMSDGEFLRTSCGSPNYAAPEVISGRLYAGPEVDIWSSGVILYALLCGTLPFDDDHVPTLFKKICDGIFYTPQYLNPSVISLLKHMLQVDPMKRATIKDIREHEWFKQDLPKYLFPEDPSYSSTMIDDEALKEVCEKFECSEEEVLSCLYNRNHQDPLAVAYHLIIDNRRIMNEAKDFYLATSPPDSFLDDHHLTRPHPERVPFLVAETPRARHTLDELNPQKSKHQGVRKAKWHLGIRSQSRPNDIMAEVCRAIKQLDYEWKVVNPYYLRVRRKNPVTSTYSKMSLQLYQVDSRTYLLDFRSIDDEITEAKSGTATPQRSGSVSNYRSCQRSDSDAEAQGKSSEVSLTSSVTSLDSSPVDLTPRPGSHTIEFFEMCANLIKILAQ
AMPK (hum), sequence (O43741 whole entry partner): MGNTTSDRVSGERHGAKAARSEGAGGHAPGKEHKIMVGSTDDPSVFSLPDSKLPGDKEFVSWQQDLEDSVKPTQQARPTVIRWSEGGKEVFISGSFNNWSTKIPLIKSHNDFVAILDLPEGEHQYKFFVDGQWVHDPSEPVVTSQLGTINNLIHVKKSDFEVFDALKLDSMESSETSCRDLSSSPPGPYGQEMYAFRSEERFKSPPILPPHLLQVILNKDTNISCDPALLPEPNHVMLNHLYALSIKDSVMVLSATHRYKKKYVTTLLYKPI
AMPK (hum), sequence (P54619 whole entry partner): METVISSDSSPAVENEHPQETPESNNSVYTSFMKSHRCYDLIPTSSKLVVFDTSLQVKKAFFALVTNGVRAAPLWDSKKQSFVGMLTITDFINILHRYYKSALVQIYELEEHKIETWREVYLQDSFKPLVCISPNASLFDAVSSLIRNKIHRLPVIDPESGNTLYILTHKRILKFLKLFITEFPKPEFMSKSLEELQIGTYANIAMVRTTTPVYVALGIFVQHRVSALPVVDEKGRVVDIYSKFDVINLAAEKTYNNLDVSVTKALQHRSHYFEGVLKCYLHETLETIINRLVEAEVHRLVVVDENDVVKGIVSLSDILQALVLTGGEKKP
DAPK1, sequence (P53355 whole entry): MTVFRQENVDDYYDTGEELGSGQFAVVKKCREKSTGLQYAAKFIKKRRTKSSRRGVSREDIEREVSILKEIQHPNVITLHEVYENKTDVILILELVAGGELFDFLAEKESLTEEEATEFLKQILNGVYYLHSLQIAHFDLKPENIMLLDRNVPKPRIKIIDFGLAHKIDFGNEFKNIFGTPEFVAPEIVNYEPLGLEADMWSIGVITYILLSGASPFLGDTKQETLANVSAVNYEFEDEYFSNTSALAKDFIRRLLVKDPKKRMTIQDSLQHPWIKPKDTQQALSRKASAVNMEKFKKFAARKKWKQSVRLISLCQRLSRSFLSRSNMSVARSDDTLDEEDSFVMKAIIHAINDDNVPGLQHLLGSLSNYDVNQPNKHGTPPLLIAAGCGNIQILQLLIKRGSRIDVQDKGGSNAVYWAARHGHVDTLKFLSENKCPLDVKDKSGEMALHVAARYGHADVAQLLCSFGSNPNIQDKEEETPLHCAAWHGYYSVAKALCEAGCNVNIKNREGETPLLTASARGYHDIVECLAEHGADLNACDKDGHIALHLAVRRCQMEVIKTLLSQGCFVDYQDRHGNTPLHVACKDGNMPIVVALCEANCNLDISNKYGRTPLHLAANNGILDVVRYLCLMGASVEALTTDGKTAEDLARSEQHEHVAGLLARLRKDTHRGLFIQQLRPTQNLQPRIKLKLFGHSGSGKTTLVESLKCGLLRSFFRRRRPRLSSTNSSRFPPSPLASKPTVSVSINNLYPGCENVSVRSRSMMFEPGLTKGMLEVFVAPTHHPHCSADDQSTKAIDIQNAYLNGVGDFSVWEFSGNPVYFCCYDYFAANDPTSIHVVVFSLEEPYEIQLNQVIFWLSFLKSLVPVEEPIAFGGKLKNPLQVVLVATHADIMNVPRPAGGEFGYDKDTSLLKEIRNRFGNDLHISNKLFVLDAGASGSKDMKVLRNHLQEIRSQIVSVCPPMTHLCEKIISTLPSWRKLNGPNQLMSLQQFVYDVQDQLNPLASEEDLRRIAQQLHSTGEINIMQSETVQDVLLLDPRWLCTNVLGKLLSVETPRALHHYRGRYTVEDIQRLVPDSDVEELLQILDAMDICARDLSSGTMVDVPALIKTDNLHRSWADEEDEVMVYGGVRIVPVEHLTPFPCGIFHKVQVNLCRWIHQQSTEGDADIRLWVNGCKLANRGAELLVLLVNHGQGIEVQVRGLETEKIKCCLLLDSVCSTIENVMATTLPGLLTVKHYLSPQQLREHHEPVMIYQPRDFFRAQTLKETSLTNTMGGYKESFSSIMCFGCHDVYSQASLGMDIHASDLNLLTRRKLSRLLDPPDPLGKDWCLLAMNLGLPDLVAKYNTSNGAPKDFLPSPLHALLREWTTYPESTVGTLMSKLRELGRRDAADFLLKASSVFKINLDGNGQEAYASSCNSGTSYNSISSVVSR
EPH-A4, sequence (P54764 20-986): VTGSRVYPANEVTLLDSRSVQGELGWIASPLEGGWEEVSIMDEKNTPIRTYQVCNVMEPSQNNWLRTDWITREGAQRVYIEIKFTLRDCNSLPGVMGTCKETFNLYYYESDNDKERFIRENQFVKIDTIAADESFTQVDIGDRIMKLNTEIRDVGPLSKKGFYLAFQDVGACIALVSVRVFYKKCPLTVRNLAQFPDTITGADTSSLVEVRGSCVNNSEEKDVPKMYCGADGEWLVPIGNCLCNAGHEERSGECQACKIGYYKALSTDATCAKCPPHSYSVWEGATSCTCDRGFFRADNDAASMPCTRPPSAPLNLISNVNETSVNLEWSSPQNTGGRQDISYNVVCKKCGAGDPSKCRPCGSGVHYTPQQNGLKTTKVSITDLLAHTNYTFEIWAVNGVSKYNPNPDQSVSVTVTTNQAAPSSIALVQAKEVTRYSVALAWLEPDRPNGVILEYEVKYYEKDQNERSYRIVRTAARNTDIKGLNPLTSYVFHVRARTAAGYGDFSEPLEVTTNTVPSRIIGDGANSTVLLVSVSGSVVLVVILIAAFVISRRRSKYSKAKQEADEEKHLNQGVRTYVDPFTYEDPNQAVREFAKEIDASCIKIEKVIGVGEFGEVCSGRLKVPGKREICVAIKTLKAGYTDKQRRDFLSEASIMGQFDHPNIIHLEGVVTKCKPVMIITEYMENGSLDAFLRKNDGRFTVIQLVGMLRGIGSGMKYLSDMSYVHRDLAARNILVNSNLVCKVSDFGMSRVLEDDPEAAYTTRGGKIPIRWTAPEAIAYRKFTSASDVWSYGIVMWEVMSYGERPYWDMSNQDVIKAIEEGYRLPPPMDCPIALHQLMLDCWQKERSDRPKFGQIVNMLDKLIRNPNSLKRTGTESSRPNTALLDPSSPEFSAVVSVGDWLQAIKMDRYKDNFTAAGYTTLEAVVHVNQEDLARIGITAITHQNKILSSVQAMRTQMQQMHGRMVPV
HIPK3, sequence (Q9H422 whole entry): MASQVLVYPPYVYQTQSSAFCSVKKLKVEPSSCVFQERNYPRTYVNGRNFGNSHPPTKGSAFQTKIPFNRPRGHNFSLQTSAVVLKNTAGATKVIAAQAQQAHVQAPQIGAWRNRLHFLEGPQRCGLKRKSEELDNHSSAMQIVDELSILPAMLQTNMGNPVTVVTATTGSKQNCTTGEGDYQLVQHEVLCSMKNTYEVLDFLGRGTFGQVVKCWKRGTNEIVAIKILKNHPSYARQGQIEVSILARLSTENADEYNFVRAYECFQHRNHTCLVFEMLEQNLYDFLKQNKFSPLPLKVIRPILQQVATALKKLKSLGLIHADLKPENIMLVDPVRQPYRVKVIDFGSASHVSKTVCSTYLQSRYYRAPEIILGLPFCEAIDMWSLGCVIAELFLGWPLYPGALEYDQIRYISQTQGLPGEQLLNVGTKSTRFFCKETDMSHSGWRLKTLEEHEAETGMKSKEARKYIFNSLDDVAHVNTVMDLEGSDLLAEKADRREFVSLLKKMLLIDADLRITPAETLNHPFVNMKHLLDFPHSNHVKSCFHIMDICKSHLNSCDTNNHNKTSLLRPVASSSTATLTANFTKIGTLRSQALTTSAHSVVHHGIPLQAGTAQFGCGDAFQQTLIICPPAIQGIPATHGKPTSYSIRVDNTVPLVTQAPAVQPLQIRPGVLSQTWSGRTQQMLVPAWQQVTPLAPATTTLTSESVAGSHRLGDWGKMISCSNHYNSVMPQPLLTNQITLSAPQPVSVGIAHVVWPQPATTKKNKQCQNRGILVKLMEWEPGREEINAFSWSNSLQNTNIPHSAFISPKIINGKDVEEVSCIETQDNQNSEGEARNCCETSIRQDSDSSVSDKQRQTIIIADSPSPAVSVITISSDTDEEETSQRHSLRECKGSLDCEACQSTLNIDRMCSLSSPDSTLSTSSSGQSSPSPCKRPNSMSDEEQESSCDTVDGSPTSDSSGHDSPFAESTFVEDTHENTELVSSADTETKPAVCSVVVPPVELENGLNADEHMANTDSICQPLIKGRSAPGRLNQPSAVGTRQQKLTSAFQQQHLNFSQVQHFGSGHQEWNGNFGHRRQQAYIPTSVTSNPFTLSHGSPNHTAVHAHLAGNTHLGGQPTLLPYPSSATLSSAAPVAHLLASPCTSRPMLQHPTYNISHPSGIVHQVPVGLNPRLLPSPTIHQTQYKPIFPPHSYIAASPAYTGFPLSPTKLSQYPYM
TAK1, sequence (O43318 1-303 limits assumed): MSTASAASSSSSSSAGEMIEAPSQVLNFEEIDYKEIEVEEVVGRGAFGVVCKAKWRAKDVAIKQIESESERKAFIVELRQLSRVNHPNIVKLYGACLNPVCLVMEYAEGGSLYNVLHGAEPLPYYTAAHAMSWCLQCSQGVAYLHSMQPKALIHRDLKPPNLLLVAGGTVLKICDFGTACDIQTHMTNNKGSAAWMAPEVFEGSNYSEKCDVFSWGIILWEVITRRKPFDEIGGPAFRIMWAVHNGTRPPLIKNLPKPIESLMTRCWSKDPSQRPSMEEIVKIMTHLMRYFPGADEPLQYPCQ

In the case of FC(F)(F)c1ccccc1-c1nc(NCc2cccs2)c2ccccc2n1 [Compound 1, NIH-12848, reference compound], the IC50 (PI5P4Kα) is listed as > 100 µM and the ΔTm at 63 µM (PI5P4Kβ) is listed as 0.6 ± 0.3 °C.

Compound CC(C)c1ccccc1-c1nc(NCc2ccccn2)c2c(ccn2C)n1 [Compound 40] has a remaining activity at 10 µM (VEG-FR) of 125%, a remaining activity at 10 µM (IGF-1R) of 107% and a remaining activity at 10 µM (DAPK1) of 105%. For the same compound, the remaining activity at 10 µM (MST3) was 110%, the remaining activity at 10 µM (EPH-B1) was 95% and the remaining activity at 10 µM (TTBK2) was 114%. The remaining activity at 10 µM (EPH-A4) was 96%, the remaining activity at 10 µM (TAK1) was 110% and the remaining activity at 10 µM (NEK2a) was 103%. It also gave a remaining activity at 10 µM (MLK1) of 89%, a remaining activity at 10 µM (MKK6) of 90% and a remaining activity at 10 µM (MEKK1) of 68%. It also gave a remaining activity at 10 µM (SGK1) of 98%, a remaining activity at 10 µM (PKD1) of 109% and a remaining activity at 10 µM (ERK8) of 109%. It also gave a remaining activity at 10 µM (ERK5) of 138%, a remaining activity at 10 µM (PINK) of 125% and a remaining activity at 10 µM (HIPK3) of 92%. The remaining activity at 10 µM (GCK) was 93%, the remaining activity at 10 µM (RIPK2) was 92% and the remaining activity at 10 µM (PLK1) was 97%. The remaining activity at 10 µM (HIPK1) was 104%, the remaining activity at 10 µM (MARK1) was 88% and the remaining activity at 10 µM (TTK) was 94%. For the same compound, the remaining activity at 10 µM (AMPK (hum)) was 88%, the remaining activity at 10 µM (MELK) was 95% and the remaining activity at 10 µM (MST2) was 115%.
